From patent publication US20240293562A1, “METHODS FOR USING NEUROTROPHIN RECEPTOR BINDING CONJUGATE COMPOSITIONS IN THE TREATMENT OF A NEUROLOGICAL CONDITION” (Manzanita Pharmaceuticals, Inc., priority 2020, published 2024)

Test system: Superior cervical ganglia (SCG) neurons
Test: Bioassay of neuronal survival in primary superior cervical ganglia neurons
Assay type: cell-based, Sprague Dawley rat
Details: primary SCG neurons from E-21 rat pups, microfluidic devices
From the text: The SCG assay was adapted to compartmented cultures and updated to grow primary neurons in microfluidic devices SCG neurons were harvested from E-21 Sprague Dawley rat pups. If labeled NGF has similar bioavailability to the unlabeled NGF, i.e., TrkA binding sites remain intact. FIG. 2 (right) compares left panels of study article with right panels showing treatment with NGF only.

## nerve growth factor [NGF]
  neuronal survival: appear to show neuronal survival
